How the values were obtained:
[1] = Plasma concentration after a single oral dose of the anxiolytic fraction (HPLC); format: in vivo, ICR mice; conditions: mouse, plasma, ICR mice, n = 10
Method: Eleven groups of ten animals each were randomly formed. All animals were orally administered with 200 mg/kg of the active fraction. Animals were anaesthetized with ether, and blood samples were obtained from the retroorbital sinus with a heparinized capillary, each group was examined at different times (0, 5, 10, 15, 30, 60, 120, 240, 480, 720, and 1440 min) after the active fraction was administered. […] Then the plasma samples were frozen and lyophilized. The dry plasma was subsequently used to extract and measure the concentration of the flavonoids and biotransformation products.
(§1) Plasma dried pulverized samples were extracted with methanol (HPLC grade, Merck). The extracts were filtered with Teflon membrane dimensions 0.45 μm by 13 mm (Millex®-LCR); 20 μL of each filtered sample was injected into the HPLC equipment. The measurements were performed in a (Waters corporation, Milford, CT, USA) 2695 HPLC with a diode array detector (Waters 2996) and processed with the Empower Pro 1.0 software. A Chromolith Performance® RP-18e 100 × 4.6 mm (Merck KGaA, Darmstadt, Germany) was used. The mobile phase consisted of a mixture of acetonitrile and water with the proportion 55:45 and a flow rate of 1 mL/min. The concentrations of the flavonoids and the biotransformation products were obtained by comparison with a pre-built calibration curve at λ = 220 nm.
(§2) To evaluate the suitability of the assay for the pharmacokinetic studies, 200 mg/kg of the active fraction was orally administered to the animals. Ten animals were used in each group at different times (0, 5, 10, 15, 30, 60, 120, 240, 480, 720, and 1440 min). Pharmacokinetic calculations were performed using the observed data. All data was subsequently processed using the PKSolver add-in program for Microsoft Excel written in Visual Basic for Applications. All values obtained were expressed in mean ± standard deviation.

[2] = Stability of flavonoids and biotransformation products in mouse plasma under different handling conditions; format: in vitro ADME, mice; conditions: for Accuracy Bias 0 h / Observed Conc. 0 h / Accuracy Bias 8 h / Observed Conc. 8 h / Accuracy Bias 24 h / Observed Conc. 24 h: room temperature (25 °C); for Observed Conc. 0 h / Observed Conc. 8 h / Observed Conc. 24 h / Observed Conc. Autosampler (4 °C; 8 h) / Observed Conc. Long-term (−70 °C; 1 month): n = 6; for Accuracy Bias Autosampler (4 °C; 8 h) / Accuracy Bias Long-term (−70°C; 1 month) / Observed Conc. Autosampler (4 °C; 8 h) / Observed Conc. Long-term (−70 °C; 1 month): storage stability
Method: as §1
[…] The investigation enclosed here expected manipulation conditions during all the sample storage and process periods, which included the stability data from the freeze/thaw, bench-top, autosampler, and long–term stability tests.
For all stability studies, fresh QC samples were evaluated by using a freshly prepared standard curve for the measurements. The concentrations obtained from all the stability studies were compared with the fresh QC samples, and the percentage concentration deviation was calculated. The analytes were considered stable in the mouse plasma when the concentration difference between the freshly prepared samples and the stability samples was less than 15%.

[3] = Pharmacokinetic analysis, two-compartment model (PKSolver); format: in vivo, ICR mice
Method: The data shown in Table 2 were applied to the program PKSolver. After a single oral administration of 200 mg/kg of the anxiolitic fraction of T. americana, the behavior of the concentration-time data allowed us to determine the main pharmacokinetic parameters under a two-compartment model (Table 3), and the same program provided the graphical behavior of the variables and the adjustment to the two-compartment model.
as §2
For the pharmacokinetic assay, the selection was made either from a one-compartment or a two-compartment model, with the use of both the Akaike information criterion (AIC) and the Schwarz criterion (SC). Using these two criteria, one can select which model is more suited to being adjusted, to the point where it reaches the lowest values of the AIC or SC criteria, which means that the chosen model is more parsimonious (less parameters required) and best fits the data (low error prediction).

[4] = high nominal conc. (7.00; 44.37; 4.50; 31.25 µg/mL)
[5] = low nominal conc. (1.75; 11.02; 1.12; 1.95 µg/mL)
[6] = medium nominal conc. (3.50; 22.18; 2.24; 7.81 µg/mL)
[7] = mouse, oral 200 mg/kg anxiolytic fraction, ICR mice plasma, two-compartment model
[8] = oral 200 mg/kg anxiolytic fraction, ICR mice plasma, two-compartment model
[9] = oral 200 mg/kg anxiolytic fraction, ICR mice plasma, two-compartment model, n = 10

O=C(O)Cc1cccc(O)c1 [m-HPAA, meta-hydroxyphenylacetic acid]
concentration at 5 min ([1]; 5 min after single oral dose of 200 mg/kg of the anxiolytic fraction, ND = not detected): 4670 ± 270 ng/mL | concentration at 10 min ([1]; 10 min after single oral dose of 200 mg/kg of the anxiolytic fraction): 5060 ± 220 ng/mL | concentration at 15 min ([1]; 15 min after single oral dose of 200 mg/kg of the anxiolytic fraction): 4750 ± 290 ng/mL | concentration at 30 min ([1]; 30 min after single oral dose of 200 mg/kg of the anxiolytic fraction): 4520 ± 280 ng/mL | concentration at 60 min ([1]; 60 min after single oral dose of 200 mg/kg of the anxiolytic fraction): 4290 ± 130 ng/mL | concentration at 120 min ([1]; 120 min after single oral dose of 200 mg/kg of the anxiolytic fraction): 4170 ± 330 ng/mL | concentration at 240 min ([1]; 240 min after single oral dose of 200 mg/kg of the anxiolytic fraction): 4110 ± 230 ng/mL | concentration at 480 min ([1]; 480 min after single oral dose of 200 mg/kg of the anxiolytic fraction): 4040 ± 250 ng/mL | concentration at 720 min ([1]; 720 min after single oral dose of 200 mg/kg of the anxiolytic fraction): 3940 ± 190 ng/mL | concentration at 1440 min ([1]; 1440 min after single oral dose of 200 mg/kg of the anxiolytic fraction): 3790 ± 280 ng/mL | Accuracy Bias 0 h ([2]; high nominal conc.): 1.88% | Observed Conc. 0 h ([2]; high nominal conc. (rutin 7.00; quercetin glucoside, quercitrin, tiliroside 44.37; kaempferol 4.50; m-HPAA, p-HPAA, DOPAC 31.25 µg/mL)): 31.40 ± 0.10 µg/mL | Accuracy Bias 0 h ([2]; low nominal conc.): 0.47% | Observed Conc. 0 h ([2]; low nominal conc. (rutin 1.75; quercetin glucoside, quercitrin, tiliroside 11.02; kaempferol 1.12; m-HPAA, p-HPAA, DOPAC 1.95 µg/mL)): 1.91 ± 0.2 µg/mL | Accuracy Bias 0 h ([2]; medium nominal conc.): 0.13% | Observed Conc. 0 h ([2]; medium nominal conc. (rutin 3.50; quercetin glucoside, quercitrin, tiliroside 22.18; kaempferol 2.24; m-HPAA, p-HPAA, DOPAC 7.81 µg/mL)): 7.80 ± 0.01 µg/mL | Accuracy Bias 8 h ([2]; high nominal conc.): 0.90% | Observed Conc. 8 h [2, 4]: 31.53 ± 0.19 µg/mL | Accuracy Bias 8 h ([2]; low nominal conc.): 2.23% | Observed Conc. 8 h [2, 5]: 1.91 ± 0.03 µg/mL | Accuracy Bias 8 h ([2]; medium nominal conc.): 2.18% | Observed Conc. 8 h [2, 6]: 7.98 ± 0.12 µg/mL | Accuracy Bias 24 h ([2]; high nominal conc.): 0.30% | Observed Conc. 24 h [2, 4]: 31.34 ± 0.07 µg/mL | Accuracy Bias 24 h ([2]; low nominal conc.): 2.73% | Observed Conc. 24 h [2, 5]: 1.90 ± 0.04 µg/mL | Accuracy Bias 24 h ([2]; medium nominal conc.): 0.09% | Observed Conc. 24 h [2, 6]: 7.82 ± 0.01 µg/mL | Accuracy Bias Autosampler (4 °C; 8 h) ([2]; high nominal conc.): 2.73% | Accuracy Bias Long-term (−70°C; 1 month) ([2]; high nominal conc.): 2.23% | Observed Conc. Autosampler (4 °C; 8 h) [2, 4]: 31.34 ± 0.07 µg/mL | Observed Conc. Long-term (−70 °C; 1 month) [2, 4]: 31.20 ± 0.19 µg/mL | Accuracy Bias Autosampler (4 °C; 8 h) ([2]; low nominal conc.): 0.09% | Accuracy Bias Long-term (−70°C; 1 month) ([2]; low nominal conc.): 0.90% | Observed Conc. Autosampler (4 °C; 8 h) [2, 5]: 1.93 ± 0.04 µg/mL | Observed Conc. Long-term (−70 °C; 1 month) [2, 5]: 1.92 ± 0.03 µg/mL | Accuracy Bias Autosampler (4 °C; 8 h) ([2]; medium nominal conc.): 0.30% | Accuracy Bias Long-term (−70°C; 1 month) ([2]; medium nominal conc.): 2.18% | Observed Conc. Autosampler (4 °C; 8 h) [2, 6]: 7.82 ± 0.01 µg/mL | Observed Conc. Long-term (−70 °C; 1 month) [2, 6]: 7.80 ± 0.12 µg/mL | ka smaller than the ka of DOPAC ([3]; mouse, in vivo): 79% | AUC(0-inf) [3, 7]: 124000 ng·h/mL | Cmax [3, 7]: 5760 ng/mL | Tmax [3, 7]: 0.235 h | AUC(0-t) ([3]; mouse, oral 200 mg/kg anxiolytic fraction, ICR mice plasma, two-compartment model, read-out: AUC0→1440 (converted)): 61400 ng·h/mL | MRT ([3]; mouse, oral 200 mg/kg anxiolytic fraction, ICR mice plasma, two-compartment model, read-out: MRT (mean residence time) (converted)): 35.4 h | k el ([3]; mouse, oral 200 mg/kg anxiolytic fraction, ICR mice plasma, two-compartment model, read-out: k10 (apparent first-order elimination rate constant from the central compartment) (converted)): 1.5e-05 s⁻¹ | half-life ([3]; mouse, oral 200 mg/kg anxiolytic fraction, ICR mice plasma, two-compartment model, read-out: t1/2β): 25 h | CL/F (apparent clearance) [3, 8]: 0.026 (mg/Kg)/(μg/mL)/min | V/F (apparent volume of distribution) [3, 8]: 30.45 (mg/Kg)/(µg/mL) | k12 (transfer rate constant central to peripheral compartment) [3, 8]: 0.009 min⁻¹ | k21 (transfer rate constant peripheral to central compartment) [3, 8]: 0.01 min⁻¹ | ka (apparent first-order absorption rate constant) [3, 8]: 0.24 min⁻¹ | t1/2ka (absorption half time) [3, 8]: 2.84 min | t1/2α [3, 8]: 0.5847 h | α [3, 8]: 0.02 min⁻¹ | β [3, 8]: 0.0005 min⁻¹ | A (plasma concentration coefficient, central compartment) [3, 9]: 3.49 µg/mL | B (plasma concentration coefficient, peripheral compartment) [3, 9]: 3.36 µg/mL | index: relation between rate constants of k12 with respect to k21 ([3]; two-compartment model): 0.9
